# According to patent US10730858B2, “Lactam, cyclic urea and carbamate, and triazolone derivatives as potent and selective rock inhibitors” (BRISTOL-MYERS SQUIBB COMPANY, priority 2016, dated 2020):
# System: rat models of hypertension
# Experiment: not given
# Conditions: control rats; cited from earlier work
row,SMILES,blood pressure
1,"C[C@@H](N)[C@H]1CC[C@H](C(=O)Nc2ccncc2)CC1 [Example Y-27632, Y-27632]",only a minor effect

# Same assay, conditions: spontaneously hypertensive rat, renal hypertensive rat and deoxycortisone acetate salt hypertensive rat models; cited from earlier work
row,SMILES,blood pressure
1,"C[C@@H](N)[C@H]1CC[C@H](C(=O)Nc2ccncc2)CC1 [Example Y-27632, Y-27632]",significantly decrease blood pressure

# System: rat stroke model
# Experiment: not given
# Conditions: in vivo; cited from earlier work
row,SMILES,infarct size and neurologic deficit
1,O=S(=O)(c1cccc2cnccc12)N1CCCNCC1 [fasudil],reduce both the infarct size and neurologic deficit

# System: congestive heart failure in Dahl salt-sensitive rats
# Experiment: not given
# Conditions: rat, in vivo; cited from earlier work
row,SMILES,"ventricular hypertrophy, fibrosis and function"
1,"C[C@@H](N)[C@H]1CC[C@H](C(=O)Nc2ccncc2)CC1 [Example Y-27632, Y-27632]","improve ventricular hypertrophy, fibrosis and function"

# System: IL-1 beta-induced coronary stenosis
# Experiment: not given
# Conditions: long term treatment; cited from earlier work
SMILES,coronary constrictive remodeling,coronary stenosis
O=S(=O)(c1cccc2cnccc12)N1CCCNCC1 [fasudil],promote a regression of coronary constrictive remodeling,progressively reduce coronary stenosis

# Molecular target: ROCK2 (Homo sapiens, UniProt O75116)
# Sequence (O75116 whole entry, species assumed): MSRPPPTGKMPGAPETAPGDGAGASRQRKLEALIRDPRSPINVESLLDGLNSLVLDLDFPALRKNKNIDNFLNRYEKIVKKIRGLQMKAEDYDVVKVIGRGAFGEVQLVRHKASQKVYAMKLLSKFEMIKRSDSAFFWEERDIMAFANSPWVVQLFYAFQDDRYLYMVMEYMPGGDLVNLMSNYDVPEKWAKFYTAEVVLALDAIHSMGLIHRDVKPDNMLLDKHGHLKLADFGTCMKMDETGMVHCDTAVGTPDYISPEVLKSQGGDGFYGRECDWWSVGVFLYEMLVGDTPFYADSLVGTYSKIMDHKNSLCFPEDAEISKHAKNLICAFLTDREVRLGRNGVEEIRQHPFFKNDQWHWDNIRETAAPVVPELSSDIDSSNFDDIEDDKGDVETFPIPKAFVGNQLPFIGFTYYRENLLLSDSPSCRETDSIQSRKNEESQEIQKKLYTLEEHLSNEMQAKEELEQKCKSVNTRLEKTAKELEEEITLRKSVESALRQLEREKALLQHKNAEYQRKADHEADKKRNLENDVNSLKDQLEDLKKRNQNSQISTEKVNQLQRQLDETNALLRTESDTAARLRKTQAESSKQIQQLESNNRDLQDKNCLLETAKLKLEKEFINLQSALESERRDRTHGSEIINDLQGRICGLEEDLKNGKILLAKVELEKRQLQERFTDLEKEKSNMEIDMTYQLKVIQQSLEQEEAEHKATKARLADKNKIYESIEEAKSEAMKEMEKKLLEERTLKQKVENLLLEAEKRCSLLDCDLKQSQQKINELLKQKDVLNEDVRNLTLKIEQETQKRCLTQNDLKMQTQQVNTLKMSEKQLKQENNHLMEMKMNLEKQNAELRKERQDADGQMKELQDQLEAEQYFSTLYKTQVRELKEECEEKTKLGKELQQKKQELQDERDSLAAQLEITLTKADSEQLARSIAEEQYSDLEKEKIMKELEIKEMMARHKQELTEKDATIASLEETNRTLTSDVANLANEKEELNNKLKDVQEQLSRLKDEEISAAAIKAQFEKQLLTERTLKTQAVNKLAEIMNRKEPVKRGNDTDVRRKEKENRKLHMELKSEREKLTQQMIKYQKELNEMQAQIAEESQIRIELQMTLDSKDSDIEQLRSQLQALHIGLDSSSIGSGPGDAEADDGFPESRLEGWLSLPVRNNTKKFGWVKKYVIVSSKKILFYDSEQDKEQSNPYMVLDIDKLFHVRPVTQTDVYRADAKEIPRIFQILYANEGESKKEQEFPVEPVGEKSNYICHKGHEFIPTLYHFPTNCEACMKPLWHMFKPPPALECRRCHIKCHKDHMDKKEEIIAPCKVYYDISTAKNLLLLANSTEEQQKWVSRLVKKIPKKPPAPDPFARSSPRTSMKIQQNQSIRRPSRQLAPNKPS
# Experiment: ROCK2 assay (Caliper LABCHIP peptide phosphorylation, kinase inhibition)
# Format: biochemical
# Conditions: 5 μM ATP, 1.5 μM peptide substrate
# Experimental: The effectiveness of compounds of the present invention as ROCK inhibitors can be determined in a 30 μL assay containing 20 mM HEPES, pH 7.5, 20 mM MgCl2, 0.015% Brij-35, 4 mM DTT, 5 μM ATP and 1.5 μM peptide substrate (FITC-AHA-AKRRRLSSLRA-OH) (SEQ ID NO. 1). Compounds were dissolved in DMSO so that the final concentration of DMSO was <2%, and the reaction was initiated with Rho kinase variants. After incubation, the reaction was terminated by the addition of EDTA and the phosphorylated and non-phosphorylated peptides separated using a LABCHIP® 3000 Reader (Caliper Life Sciences). […] Compounds were tested in dose-response format, and the inhibition of kinase activity was calculated at each concentration of compound. The inhibition data were fit using a curve-fitting program to determine the IC50; i.e., the concentration of compound required to inhibit 50% of kinase activity.
# Representative Examples were tested in the ROCK2 assay described above and found having ROCK2 inhibitory activity. The ranges of the ROCK2 IC50 values are as follows: ROCK2 IC50: ++++ (<10 nM) +++ (10-100 nM) ++ (100-500 nM) + (500-2000 nM)
row,IC50 [nM],SMILES
1,10 to 100,"O=C1C(Nc2ccc3c(c2)OCCO3)CCN1c1ccc(-c2n[nH]c(=O)c3ccccc23)cc1 (stereo not shown) [Example 50, 4-(4-{3-[(2,3-dihydro-1,4-benzodioxin-6-yl)amino]-2-oxopyrrolidin-1-yl}phenyl)-1,2-dihydrophthalazin-1-one]"
2,10 to 100,"O=C1C(Nc2ccc3c(c2)OC(F)(F)O3)CCN1c1ccc(-c2n[nH]c(=O)c3ccccc23)cc1 (stereo not shown) [Example 51, 4-(4-{3-[(2,2-difluoro-2H-1,3-benzodioxol-5-yl)amino]-2-oxopyrrolidin-1-yl}phenyl)-1,2-dihydrophthalazin-1-one]"
3,< 10,"O=C1C(Nc2cccc(OC(F)(F)F)c2)CCN1c1ccc(-c2n[nH]c(=O)c3ccccc23)cc1 (stereo not shown) [Example 52, 4-[4-(2-oxo-3-{[3-(trifluoromethoxy)phenyl]amino}pyrrolidin-1-yl)phenyl]-1,2-dihydrophthalazin-1-one]"
4,100 to 500,"O=c1[nH]nc(-c2ccc(-n3ncn(Cc4cccc(F)c4)c3=O)cc2)c2ccccc12 [Example 53, 4-(4-{4-[(3-fluorophenyl)methyl]-5-oxo-4,5-dihydro-1H-1,2,4-triazol-1-yl}phenyl)-1,2-dihydrophthalazin-1-one]"
5,500 to 2000,"CC(c1ccccc1)n1cnn(-c2ccc(-c3n[nH]c(=O)c4ccccc34)cc2)c1=O (stereo not shown) [Example 54, 4-{4-[5-oxo-4-(1-phenylethyl)-4,5-dihydro-1H-1,2,4-triazol-1-yl]phenyl}-1,2-dihydrophthalazin-1-one]"
6,10 to 100,"CC(C)Oc1cccc(NC2CCN(c3ccc(-c4n[nH]c(=O)c5ccccc45)cc3)C2=O)c1 (stereo not shown) [Example 57, 4-[4-(2-oxo-3-{[3-(propan-2-yloxy)phenyl]amino}pyrrolidin-1-yl)phenyl]-1,2-dihydrophthalazin-1-one]"
7,100 to 500,"N#Cc1cnc(NC2CCN(c3ccc(-c4n[nH]c(=O)c5ccccc45)cc3)C2=O)s1 (stereo not shown) [Example 59, 2-({2-oxo-1-[4-(4-oxo-3,4-dihydrophthalazin-1-yl)phenyl]pyrrolidin-3-yl}amino)-1,3-thiazole-5-carbonitrile]"
8,10 to 100,"O=C1C(Nc2ccc(OC(F)F)cc2)CCN1c1ccc(-c2n[nH]c(=O)c3ccccc23)cc1 (stereo not shown) [Example 60, 4-[4-(3-{[4-(difluoromethoxy)phenyl]amino}-2-oxopyrrolidin-1-yl)phenyl]-1,2-dihydrophthalazin-1-one]"
9,10 to 100,"COc1ccccc1NC1CCN(c2ccc(-c3n[nH]c(=O)c4ccccc34)cc2)C1=O (stereo not shown) [Example 61, 4-(4-{3-[(2-methoxyphenyl)amino]-2-oxopyrrolidin-1-yl}phenyl)-1,2-dihydrophthalazin-1-one]"
10,100 to 500,"O=c1[nH]nc(-c2ccc(-n3ncn(Cc4cccc(OC(F)F)c4)c3=O)cc2)c2ccccc12 [Example 63, 4-[4-(4-{[3-(difluoromethoxy)phenyl]methyl}-5-oxo-4,5-dihydro-1H-1,2,4-triazol-1-yl)phenyl]-1,2-dihydrophthalazin-1-one]"
11,10 to 100,"CC(C)n1ccc(NC2CCN(c3ccc(-c4n[nH]c(=O)c5ccccc45)cc3)C2=O)n1 (stereo not shown) [Example 64, 4-[4-(2-oxo-3-{[1-(propan-2-yl)-1H-pyrazol-3-yl]amino}pyrrolidin-1-yl)phenyl]-1,2-dihydrophthalazin-1-one]"
12,100 to 500,"Cn1ccc(NC2CCN(c3ccc(-c4n[nH]c(=O)c5ccccc45)cc3)C2=O)n1 (stereo not shown) [Example 65, 4-(4-{3-[(1-methyl-1H-pyrazol-3-yl)amino]-2-oxopyrrolidin-1-yl}phenyl)-1,2-dihydrophthalazin-1-one]"
13,10 to 100,"CS(=O)(=O)c1cccc(NC2CCN(c3ccc(-c4n[nH]c(=O)c5ccccc45)cc3)C2=O)c1 (stereo not shown) [Example 67, 4-(4-{3-[(3-methanesulfonylphenyl)amino]-2-oxopyrrolidin-1-yl}phenyl)-1,2-dihydrophthalazin-1-one]"
14,10 to 100,"CSc1cccc(NC2CCN(c3ccc(-c4n[nH]c(=O)c5ccccc45)cc3)C2=O)c1 (stereo not shown) [Example 68, 4-[4-(3-{[3-(methylsulfanyl)phenyl]amino}-2-oxopyrrolidin-1-yl)phenyl]-1,2-dihydrophthalazin-1-one]"
15,10 to 100,"O=C1C(Nc2cccc(F)n2)CCN1c1ccc(-c2n[nH]c(=O)c3ccccc23)cc1 (stereo not shown) [Example 69, 4-(4-{3-[(6-fluoropyridin-2-yl)amino]-2-oxopyrrolidin-1-yl}phenyl)-1,2-dihydrophthalazin-1-one]"
16,100 to 500,"O=C1C(Nc2ccc3c(c2)CCNC3)CCN1c1ccc(-c2n[nH]c(=O)c3ccccc23)cc1 (stereo not shown) [Example 70, 4-(4-{2-oxo-3-[(1,2,3,4-tetrahydroisoquinolin-6-yl)amino]pyrrolidin-1-yl}phenyl)-1,2-dihydrophthalazin-1-one]"
17,10 to 100,"CC(C)c1cc(NC2CCN(c3ccc(-c4n[nH]c(=O)c5ccccc45)cc3)C2=O)n(C)n1 (stereo not shown) [Example 71, 4-[4-(3-{[1-methyl-3-(propan-2-yl)-1H-pyrazol-5-yl]amino}-2-oxopyrrolidin-1-yl)phenyl]-1,2-dihydrophthalazin-1-one]"
18,500 to 2000,"COc1cccc(Cn2c(C)nn(-c3ccc(-c4c[nH]c(=O)c5ccsc45)cc3)c2=O)c1 [Example 72, 4-[(3-methoxyphenyl)methyl]-3-methyl-1-(4-{4-oxo-3aH,4H,5H,7aH-thieno[3,2-c]pyridin-7-yl}phenyl)-4,5-dihydro-1H-1,2,4-triazol-5-one]"
19,10 to 100,"N#Cc1ccnc(NC2CCN(c3ccc(-c4n[nH]c(=O)c5ccccc45)cc3)C2=O)c1 (stereo not shown) [Example 74, 2-({2-oxo-1-[4-(4-oxo-3,4-dihydrophthalazin-1-yl)phenyl]pyrrolidin-3-yl}amino)pyridine-4-carbonitrile]"
20,500 to 2000,"CN1CCc2cc(NC3CCN(c4ccc(-c5n[nH]c(=O)c6ccccc56)cc4)C3=O)ccc2C1 (stereo not shown) [Example 75, 4-(4-{3-[(2-methyl-1,2,3,4-tetrahydroisoquinolin-6-yl)amino]-2-oxopyrrolidin-1-yl}phenyl)-1,2-dihydrophthalazin-1-one]"
21,10 to 100,"COc1cccc(OC2CCN(c3ccc(-c4n[nH]c(=O)c5ccccc45)cc3)C2=O)c1 (stereo not shown) [Example 86, 4-{4-[3-(3-methoxyphenoxy)-2-oxopyrrolidin-1-yl]phenyl}-1,2-dihydrophthalazin-1-one]"
22,10 to 100,"COc1ccc(F)c(OC2CCN(c3ccc(-c4n[nH]c(=O)c5ccccc45)cc3)C2=O)c1 (stereo not shown) [Example 87, 4-{4-[3-(2-fluoro-5-methoxyphenoxy)-2-oxopyrrolidin-1-yl]phenyl}-1,2-dihydrophthalazin-1-one]"
23,10 to 100,"COc1cc(OC2CCN(c3ccc(-c4n[nH]c(=O)c5ccccc45)cc3)C2=O)ccc1F (stereo not shown) [Example 88, 4-{4-[3-(4-fluoro-3-methoxyphenoxy)-2-oxopyrrolidin-1-yl]phenyl}-1,2-dihydrophthalazin-1-one]"
24,10 to 100,"COc1cc(F)cc(OC2CCN(c3ccc(-c4n[nH]c(=O)c5ccccc45)cc3)C2=O)c1 (stereo not shown) [Example 89, 4-{4-[3-(3-fluoro-5-methoxyphenoxy)-2-oxopyrrolidin-1-yl]phenyl}-1,2-dihydrophthalazin-1-one]"

# System: neointimal formation
# Experiment: not given
# Conditions: rats; cited from earlier work
row,SMILES,neointimal formation
1,"C[C@@H](N)[C@H]1CC[C@H](C(=O)Nc2ccncc2)CC1 [Example Y-27632, Y-27632]",inhibited neointimal formation
